Results from EP1944295A1, “Non-racemic mixtures of (R)-N-piperidinyl-5-(4-chlorophenyl)1-(2,4-dichlorophenyl)-4,5-dihydro-1H-pyrazole-3-carboxamide and (S)-N-piperidinyl-5-(4-chlorophenyl)-1-(2,4-dichlorophenyl)-4,5-dihydro-1H-pyrazole-3-carboxamide” (Laboratorios del Dr. Esteve S.A., priority 2007, dated 2008).
Read-outs that look alike come from different tables or passages of the source.

Legend:
[1] = Plasma glycerol and triacylglycerol assay; assay type: in vivo, female Wistar rats; conditions: obese rats, vs vehicle; for reduction of plasma glycerol levels / reduction of plasma triacylglycerol concentrations: 30 mg/kg po once daily for 28 days
Experimental: (§1) The experiment was performed on female Wistar rats (originally in the weight range 250-300 g). The rats were housed in pairs in polypropylene cages with solid floors and sawdust bedding at a temperature of 21±4°C and 55±20% humidity. Animals were maintained on a reverse phase light-dark cycle (lights off for 8 h from 09.30-17.30 h) during which time the room was illuminated by red light. Animals had free access to powdered high fat diet (VRF1 plus 20% lard), ground chocolate, ground peanuts and tap water at all times. The three different diets were contained in separate glass feeding jars with aluminum lids with a 3-4 cm hole cut in it to allow access to the food. Animals were housed in pairs for twelve weeks for the induction of obesity. Animals were then housed singly in polypropylene cages with wire grid floors to enable the food intake of each rat to be recorded. Polypropylene trays with cage pads were placed beneath each cage to detect any food spillage. Animals were accustomed to these new conditions (individual housing and the wire-grid floor cages) for at least 14 days before the start of the baseline readings.
(§2) Approximately a week before the start of the study, animals were weighed (to the nearest 0.1 g using an electronic top-pan balance) and allocated into […], each containing 9-10 animals. Following a 7 day baseline run-in period, during which the animals were dosed by the appropriate route (eg orally) once a day with vehicle (0.5% hydroxy-propyl-methylcellulose [HPMC]; 1 ml/kg) or the test drug, ie COMPOUND A (10 and 30 mg/kg po) and COMPOUND B (10 and 30 mg/kg po) once daily for 28 days.
Terminal blood samples via cardiac puncture were taken from the animals immediately after death into Sarstedt 4.5 ml lithium-heparin tubes (Cat No. 32.331). Tubes were then centrifuged at 1,500 g for 5 minutes at 4°C and the plasma removed and immediately frozen on dry ice (as 3 aliquots per sample in sealed Eppendorf tubes). Plasma samples were stored at -75°C until required for analysis. All determinations were performed on plasma samples that had been thawed only once.
Plasma triacylglycerol was determined by modification of a discrete assay kit (Sigma Triglyceride determination kit, Cat No. TR0100) to a 96-well format. The kit actually determines liberated glycerol following enzymic hydrolysis of triacylglycerol to free fatty acids and glycerol (1 mole glycerol per mole of triacylglycerol). For this reason, correction for the glycerol concentration originally present in the plasma is required. Plasma samples were, therefore, assayed in the absence (free plasma glycerol) or presence (total triacylglycerol) of lipoprotein lipase. Subtraction of free glycerol from total triacylglycerol concentration then derives the true triacylglycerol concentration.
A 2.5 mg/ml triolein equivalent glycerol standard was obtained from Sigma. The supplied Sigma mM conversion factor for this batch was 1.13 (ie 2.83 mM glycerol). A 10 mg/ml glycerol stock solution was prepared in saline and then diluted in saline to create a series of standard concentrations from 0.218 to 4.34 mM. Standards and plasma samples (undiluted) were pipetted into the 96-well plates as 10 µl additions in duplicate. Assay plates and reagents were preheated at 37°C and the reaction started by adding 200 µl of either the glycerol or total triacylglycerol reagent (reconstituted as per manufacturer's protocol) followed by incubation at 37°C for 5 minutes after which optical density at 540 nm was determined using a Molecular Devices VERSAmax tunable microplate reader. Optical density readings were then transferred to GraphPad Prism and unknown values extrapolated from a linear regression fit to the standard curve. The assay was linear up to the highest glycerol standard employed (4.34 mM). Subtraction of the glycerol concentration in the plasma samples from the total triacylglycerol concentration derived the true triacylglycerol concentration.

Herg channel = Herg channel (Homo sapiens, UniProt Q12809); experiment: Herg channel affinity (statement only, no method); assay type: binding; conditions: low risk of prolongation of the QT-interval expected
rat CB1 receptors = biological target: T1, rat CB1 receptors (Rattus norvegicus, UniProt P20272); experiment: Binding affinity to CB1 receptor, competitive binding with [3H]-CP 55,940 in rat cerebellum membranes
T1 construct: cerebella from male Wistar rats (250-300g) were carefully dissected on ice and homogenates were prepared; from tissue; host or cells: rat cerebellum membranes (male Wistar rats)
Experimental: Binding affinity to CB1 receptor was evaluated according to the method of Govaerts et al (2004) with the following modifications. Briefly, cerebella from male Wistar rats (250-300g) were carefully dissected on ice and homogenates were prepared in cold 50 mM Tris-HCl, 5 mM MgCl2, 1 mM EDTA, 0.25 M sucrose, pH 7.4 with a Potter-Heljheim homogeniser and the suspension was centrifuged at 1,000 x g for 5 minutes. The supernatants were collected and centrifuged at 50,000 x g for 15 min. The resulting pellets were resuspended in Tris-HCl buffer without sucrose, homogenized and incubated for 15 min at 37°C in an orbital shaker bath and centrifuged again at 50,000 x g for 15 min. Pellets were weighed, resuspended in Tris-HCl buffer without sucrose, homogenized with an Ultraturrax homogeniser at 13,500 rpm for 3 x 5 seconds and aliquoted in 0.9 ml volumes in Eppendorf tubes. Aliquots were centrifuged at 20,800 x g for 5 minutes, supernatants discarded and pellets were frozen at -80°C until use. Total protein concentration was determined using a Bio-Rad commercial assay base on the Lowry method. Competitive binding experiments were performed in presence of 1 nM [^3H]-CP 55,940 in siliconized glass tubes containing 100 µg protein/tube resuspended in 1 ml final volume of 50 mM Tris-HCl, 5 mM MgCl2, 1 mM EDTA, 0.5% (w/v) bovine serum albumin, pH 7.4. Competitors were present at various concentrations and the non-specific binding was determined in the presence of 10 µM HU-210. After 1 hour incubation at 30°C, the suspension was rapidly filtered through 0.5% PEI pre-treated GF/B fiber filters on a 96-well harvester and washed 3 times with 3ml ice-cold binding buffer without bovine serum albumin. Radioactivity on filters was measured with Wallac Winspectral 1414 counter by liquid scintillation in 6 ml Ecoscint H (National Diagnostics, U.K.). Assays were made in triplicate.
Binding data were analyzed by non-linear regression with the software GraphPad Prism Version 3.03.

[2] = Feeding study: body weight of obese rats with access to highly palatable cafeteria diet; assay type: in vivo, female Wistar rats; conditions: after 28 days of treatment, dietary-induced obese rats
Experimental: as §1, §2
Food intake and body weight were measured once daily. Variations in body weight and energy levels of the different types of food were accounted for by expressing the food intake results in terms of kJ/kg rat weight.
Statistical comparisons between the body weights and daily food intakes of the different treatment groups have been made by analysis of covariance followed by Dunnett's test to compare each treatment group with the vehicle-treated controls. For the body weight data (body weights each day), the weights of the animals on Day 1 (ie immediately before the first drug treatment) were used as the covariate. Thus, means were adjusted for differences in body weight between the groups on Day 1 and standard errors of the mean (SEM) were calculated from the residuals of the statistical model. All mean body weight values on Day 1 are identical (and SEM are therefore zero) because the analysis of covariance adjusts them all to equal the 'grand mean' of the values of this day.

Plasma NEFA assay = assay type: in vivo, female Wistar rats; conditions: 30 mg/kg po once daily for 28 days, obese rats
Experimental: as §1, with “Animals were housed in pairs for twelve weeks for the induction of obesity.” left out, “Polypropylene trays with cage pads were placed beneath each cage to detect any food spillage.” left out, “readings. […]” for “readings.”
Non-esterified (or free) fatty acids (NEFA) were determined by modification of a commercial clinical analyser assay kit (Wako NEFA C ACS-ACOD method) to a 96-well format. […] After exactly 10 minutes, 150 µl of reagent B was added and the plate incubated for a further 10 minutes after which optical density at 540 nm was determined using a Molecular Devices VERSAmax tunable microplate reader. […]

[3] = Determination of carcass fat content (Soxhlet); assay type: in vivo, female Wistar rats; conditions: obese rats, g per rat
Experimental: as §1, with “Polypropylene trays with cage pads were placed beneath each cage to detect any food spillage.” left out, “readings. […]” for “readings.”
Percentage fat in the freeze-dried sample was calculated as follows: % fat = [100×(final cup weight-initial cup weight)]/sample weight [formula]
Percentage fat in the original sample was calculated using the % water as follows: % fat in original sample = % fat × [(100-% water)/100] […]

Plasma leptin assay = assay type: in vivo, female Wistar rats; conditions: obese rats
Experimental: as §1, with “Polypropylene trays with cage pads were placed beneath each cage to detect any food spillage.” left out, “readings. […]” for “readings.”
Plasma leptin concentration was determined using Assay Designs rat leptin enzyme immunometric assay kits (Cat No. 900-015) according to the manufacturer's regular protocol. […] Optical density at 450 nm was determined using a Molecular Devices VERSAmax tunable microplate reader and readings transferred to GraphPad Prism. […]

[4] = 10 mg/kg po once daily for 28 days
[5] = 1 nM [3H]-CP 55,940, read-out: IC50
[6] = 30 mg/kg po once daily for 28 days

T1 sequence (P20272 whole entry): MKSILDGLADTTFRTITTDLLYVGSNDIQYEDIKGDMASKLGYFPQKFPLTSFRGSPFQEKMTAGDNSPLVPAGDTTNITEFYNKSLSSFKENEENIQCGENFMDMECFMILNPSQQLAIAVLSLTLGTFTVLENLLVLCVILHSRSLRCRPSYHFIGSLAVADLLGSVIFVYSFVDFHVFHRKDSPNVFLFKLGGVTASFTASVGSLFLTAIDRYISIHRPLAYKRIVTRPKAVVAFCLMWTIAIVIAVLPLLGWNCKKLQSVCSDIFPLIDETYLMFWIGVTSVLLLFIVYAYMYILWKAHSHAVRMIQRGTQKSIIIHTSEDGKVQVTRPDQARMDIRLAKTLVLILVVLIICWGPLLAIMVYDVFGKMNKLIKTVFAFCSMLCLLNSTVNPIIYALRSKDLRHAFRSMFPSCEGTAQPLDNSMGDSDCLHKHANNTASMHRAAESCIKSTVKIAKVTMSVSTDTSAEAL
Herg channel, sequence (Q12809 whole entry): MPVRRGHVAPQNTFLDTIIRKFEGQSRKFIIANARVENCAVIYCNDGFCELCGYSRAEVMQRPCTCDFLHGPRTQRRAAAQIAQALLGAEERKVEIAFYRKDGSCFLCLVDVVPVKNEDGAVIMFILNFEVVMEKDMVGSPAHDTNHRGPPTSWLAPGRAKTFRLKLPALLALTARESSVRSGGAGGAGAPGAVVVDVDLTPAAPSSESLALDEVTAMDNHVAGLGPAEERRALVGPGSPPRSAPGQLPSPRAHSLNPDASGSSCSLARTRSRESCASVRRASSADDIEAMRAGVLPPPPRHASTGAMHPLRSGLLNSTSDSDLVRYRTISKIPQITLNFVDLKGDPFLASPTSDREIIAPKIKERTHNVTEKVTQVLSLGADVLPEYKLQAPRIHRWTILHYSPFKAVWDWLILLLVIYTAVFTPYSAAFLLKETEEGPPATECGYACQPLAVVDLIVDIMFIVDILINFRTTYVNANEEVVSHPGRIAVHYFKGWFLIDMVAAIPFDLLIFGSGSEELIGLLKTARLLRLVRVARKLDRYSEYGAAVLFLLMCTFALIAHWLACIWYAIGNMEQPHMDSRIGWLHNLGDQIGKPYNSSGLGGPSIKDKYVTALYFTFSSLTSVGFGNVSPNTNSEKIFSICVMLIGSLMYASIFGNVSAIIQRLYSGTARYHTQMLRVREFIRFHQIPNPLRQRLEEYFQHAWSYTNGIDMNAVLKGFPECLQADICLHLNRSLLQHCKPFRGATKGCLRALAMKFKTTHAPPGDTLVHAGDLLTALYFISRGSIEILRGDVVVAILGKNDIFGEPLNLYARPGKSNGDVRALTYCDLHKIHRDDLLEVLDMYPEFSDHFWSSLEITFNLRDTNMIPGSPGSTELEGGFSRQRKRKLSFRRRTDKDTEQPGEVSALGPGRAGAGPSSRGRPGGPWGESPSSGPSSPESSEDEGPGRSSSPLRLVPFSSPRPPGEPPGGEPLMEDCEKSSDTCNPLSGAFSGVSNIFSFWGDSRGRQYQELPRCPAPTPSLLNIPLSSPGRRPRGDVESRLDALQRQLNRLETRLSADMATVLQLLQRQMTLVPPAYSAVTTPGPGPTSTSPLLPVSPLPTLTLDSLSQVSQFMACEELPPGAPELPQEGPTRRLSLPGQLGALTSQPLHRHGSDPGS

SMILES | effect on plasma glycerol levels [1, 4] | effect on plasma triacylglycerol concentrations [1, 4] | reduction of plasma glycerol levels [1] [%] | reduction of plasma triacylglycerol concentrations [1] [%] | Herg channel affinity (Herg channel) | IC50 (rat CB1 receptors; [5]) [nM] | IC50 (rat CB1 receptors; 1 nM [3H]-CP 55,940, read-out: pIC50 (converted)) [nM] | % reduction of body weight compared to the control group on Day 29 ([2]; 10 mg/kg po once daily) [%] | % reduction of body weight compared to the control group on Day 29 ([2]; 30 mg/kg po once daily) [%] | decrease of plasma NEFA levels compared to the vehicle-treated control group (Plasma NEFA assay) [%] | decrease in absolute body fat compared to the vehicle-treated control group [3, 4] [g] | decrease in absolute body fat compared to the vehicle-treated control group [3, 6] [g] | decrease of plasma leptin levels compared to the vehicle-treated control group (Plasma leptin assay; [4]) [%] | decrease of plasma leptin levels compared to the vehicle-treated control group (Plasma leptin assay; [6]) [%]
O=C(NN1CCCCC1)C1=NN(c2ccc(Cl)cc2Cl)[C@@H](c2ccc(Cl)cc2)C1 [Compound A, (R)-N-piperidinyl-5-(4-chlorophenyl)-1-(2,4-dichlorophenyl)-4,5-dihydro-1H-pyrazole-3-carboxamide] | no significant effect | no significant effect | 33.6 | 42 | relatively weak | 16.1 | 21.9 | 12.0 | 19.0 | – | – | – | – | –
O=C(NN1CCCCC1)C1=NN(c2ccc(Cl)cc2Cl)[C@H](c2ccc(Cl)cc2)C1 [Compound B, (S)-N-piperidinyl-5-(4-chlorophenyl)-1-(2,4-dichlorophenyl)-4,5-dihydro-1H-pyrazole-3-carboxamide] | – | – | 38.9 | 52.1 | – | 813 | – | 4.0 | 7.1 | 24.4 | 26.2 | 11.1 | 13.7 | 26.2
